Laboratory results published in ChEMBL document CHEMBL1153245, “A profile of the in vitro anti-tumor activity of imidazolium-based ionic liquids” (2010).

Legend:
Format in all cases: functional
[1] = system: ACHN; assay: Anticancer activity against human ACHN cells assessed cell growth at 10 uM after 48 hrs by sulforhodamine B assay relative to control
[2] = system: SK-MEL-28; assay: Anticancer activity against human SK-MEL-28 cells assessed cell growth at 10 uM after 48 hrs by sulforhodamine B assay relative to control
[3] = system: UO-31; assay: Anticancer activity against human UO31 cells assessed cell growth at 10 uM after 48 hrs by sulforhodamine B assay relative to control
[4] = system: NCI-H23; assay: Anticancer activity against human NCI-H23 cells assessed cell growth at 10 uM after 48 hrs by sulforhodamine B assay relative to control
[5] = system: HCT-116; assay: Anticancer activity against human HCT116 cells assessed cell growth at 10 uM after 48 hrs by sulforhodamine B assay relative to control
[6] = system: HOP-92; assay: Anticancer activity against human HOP92 cells assessed cell growth at 10 uM after 48 hrs by sulforhodamine B assay relative to control
[7] = system: MDA-MB-435; assay: Anticancer activity against human MDA-MB-435 cells assessed cell growth at 10 uM after 48 hrs by sulforhodamine B assay relative to control
[8] = system: HCC 2998; assay: Anticancer activity against human HCC2998 cells assessed cell growth at 10 uM after 48 hrs by sulforhodamine B assay relative to control
[9] = system: SNB-75; assay: Anticancer activity against human SNB75 cells assessed cell growth at 10 uM after 48 hrs by sulforhodamine B assay relative to control
[10] = system: K562; assay: Anticancer activity against human K562 cells assessed cell growth at 10 uM after 48 hrs by sulforhodamine B assay relative to control
[11] = system: Malme-3M; assay: Anticancer activity against human MALME-3M cells assessed cell growth at 10 uM after 48 hrs by sulforhodamine B assay relative to control
[12] = system: SF-268; assay: Anticancer activity against human SF268 cells assessed cell growth at 10 uM after 48 hrs by sulforhodamine B assay relative to control
[13] = system: CAKI-1; assay: Anticancer activity against human Caki1 cells assessed cell growth at 10 uM after 48 hrs by sulforhodamine B assay relative to control
[14] = Anticancer activity against human RPMI8266 cells assessed cell growth at 10 uM after 48 hrs by sulforhodamine B assay relative to control
[15] = system: OVCAR-4; assay: Anticancer activity against human OVCAR4 cells assessed cell growth at 10 uM after 48 hrs by sulforhodamine B assay relative to control
[16] = system: PC-3; assay: Anticancer activity against human PC3 cells assessed cell growth at 10 uM after 48 hrs by sulforhodamine B assay relative to control
[17] = system: DU-145; assay: Anticancer activity against human DU145 cells assessed cell growth at 10 uM after 48 hrs by sulforhodamine B assay relative to control
[18] = system: MDA-MB-468; assay: Anticancer activity against human MDA-MB-468 cells assessed cell growth at 10 uM after 48 hrs by sulforhodamine B assay relative to control
[19] = system: TK-10; assay: Anticancer activity against human TK10 cells assessed cell growth at 10 uM after 48 hrs by sulforhodamine B assay relative to control
[20] = system: UACC-257; assay: Anticancer activity against human UACC257 cells assessed cell growth at 10 uM after 48 hrs by sulforhodamine B assay relative to control
[21] = system: SR; assay: Anticancer activity against human SR cells assessed cell growth at 10 uM after 48 hrs by sulforhodamine B assay relative to control
[22] = system: IGROV-1; assay: Anticancer activity against human IGROV1 cells assessed cell growth at 10 uM after 48 hrs by sulforhodamine B assay relative to control
[23] = system: T47D; assay: Anticancer activity against human T47D cells assessed cell growth at 10 uM after 48 hrs by sulforhodamine B assay relative to control
[24] = system: NCI-H522; assay: Anticancer activity against human NCI-H522 cells assessed cell growth at 10 uM after 48 hrs by sulforhodamine B assay relative to control
[25] = system: LOX IMVI; assay: Anticancer activity against human LOXIMVI cells assessed cell growth at 10 uM after 48 hrs by sulforhodamine B assay relative to control
[26] = system: MDA-MB-231; assay: Anticancer activity against human MDA-MB-231 cells assessed cell growth at 10 uM after 48 hrs by sulforhodamine B assay relative to control
[27] = system: NCI/ADR-RES; assay: Anticancer activity against human NCI/ADR-RES cells assessed cell growth at 10 uM after 48 hrs by sulforhodamine B assay relative to control
[28] = system: HOP-62; assay: Anticancer activity against human HOP62 cells assessed cell growth at 10 uM after 48 hrs by sulforhodamine B assay relative to control
[29] = system: SK-OV-3; assay: Anticancer activity against human SKOV3 cells assessed cell growth at 10 uM after 48 hrs by sulforhodamine B assay relative to control
[30] = system: SK-MEL-5; assay: Anticancer activity against human SK-MEL-5 cells assessed cell growth at 10 uM after 48 hrs by sulforhodamine B assay relative to control
[31] = system: SW-620; assay: Anticancer activity against human SW620 cells assessed cell growth at 10 uM after 48 hrs by sulforhodamine B assay relative to control
[32] = system: NCI-H460; assay: Anticancer activity against human NCI-H460 cells assessed cell growth at 10 uM after 48 hrs by sulforhodamine B assay relative to control
[33] = system: UACC-62; assay: Anticancer activity against human UACC62 cells assessed cell growth at 10 uM after 48 hrs by sulforhodamine B assay relative to control
[34] = system: MCF7; assay: Anticancer activity against human MCF7 cells assessed cell growth at 10 uM after 48 hrs by sulforhodamine B assay relative to control
[35] = system: HT-29; assay: Anticancer activity against human HT-29 cells assessed cell growth at 10 uM after 48 hrs by sulforhodamine B assay relative to control
[36] = system: M14; assay: Anticancer activity against human M14 cells assessed cell growth at 10 uM after 48 hrs by sulforhodamine B assay relative to control
[37] = system: CCRF-CEM; assay: Anticancer activity against human CCRF-CEM cells assessed cell growth at 10 uM after 48 hrs by sulforhodamine B assay relative to control
[38] = system: HL-60(TB); assay: Anticancer activity against human HL-60(TB) cells assessed cell growth at 10 uM after 48 hrs by sulforhodamine B assay relative to control
[39] = system: OVCAR-5; assay: Anticancer activity against human OVCAR5 cells assessed cell growth at 10 uM after 48 hrs by sulforhodamine B assay relative to control
[40] = system: SK-MEL-2; assay: Anticancer activity against human SK-MEL-2 cells assessed cell growth at 10 uM after 48 hrs by sulforhodamine B assay relative to control
[41] = system: SNB-19; assay: Anticancer activity against human SNB19 cells assessed cell growth at 10 uM after 48 hrs by sulforhodamine B assay relative to control
[42] = system: RXF 393; assay: Anticancer activity against human RXF393 cells assessed cell growth at 10 uM after 48 hrs by sulforhodamine B assay relative to control
[43] = system: NCI-H226; assay: Anticancer activity against human NCI-H226 cells assessed cell growth at 10 uM after 48 hrs by sulforhodamine B assay relative to control

Structure (SMILES): CCCCCCCCCCCCCCCCCC[n+]1ccn(C)c1.F[P-](F)(F)(F)(F)F
- Activity [1]: 5.45%
- Activity [2]: -57.59%
- Activity [3]: -29.46%
- Activity [4]: -49.37%
- Activity [5]: -27.74%
- Activity [6]: -47.8%
- Activity [7]: -71.22%
- Activity [8]: -83.5%
- Activity [9]: -68.15%
- Activity [10]: 14.23%
- Activity [11]: -46.96%
- Activity [12]: -48.33%
- Activity [13]: -80.74%
- Activity [14]: 19.57%
- Activity [15]: -10.51%
- Activity [16]: -62.83%
- Activity [17]: -12.17%
- Activity [18]: -23.16%
- Activity [19]: -59.16%
- Activity [20]: -62.12%
- Activity [21]: 13.95%
- Activity [22]: -12.15%
- Activity [23]: 13.4%
- Activity [24]: -53.86%
- Activity [25]: -13.99%
- Activity [26]: -32.88%
- Activity [27]: 22.73%
- Activity [28]: -56%
- Activity [29]: -6.01%
- Activity [30]: -85.04%
- Activity [31]: -48.51%
- Activity [32]: -67.11%
- Activity [33]: -65.74%
- Activity [34]: 1.35%
- Activity [35]: -50.31%
- Activity [36]: -28.52%
- Activity [37]: 13.72%
- Activity [38]: 2.58%
- Activity [39]: -60.74%
- Activity [40]: -42.48%
- Activity [41]: -67.18%
- Activity [42]: -52.84%
- Activity [43]: -34.72%

Structure (SMILES): CCCCCCCC[n+]1ccn(C)c1.F[P-](F)(F)(F)(F)F
- Activity [1]: 67.29%
- Activity [2]: 95.95%
- Activity [3]: 77.77%
- Activity [4]: 51.9%
- Activity [5]: 56.26%
- Activity [6]: 96.72%
- Activity [7]: 52.08%
- Activity [8]: 75.73%
- Activity [9]: 70.71%
- Activity [10]: 70.78%
- Activity [11]: 62.25%
- Activity [12]: 96.73%
- Activity [13]: 56.66%
- Activity [14]: 135.51%
- Activity [15]: 52.01%
- Activity [16]: 74.78%
- Activity [17]: 99.58%
- Activity [18]: 21%
- Activity [19]: 57.87%
- Activity [20]: 72.49%
- Activity [21]: 95.02%
- Activity [22]: 76.25%
- Activity [23]: 73.53%
- Activity [24]: 65.58%
- Activity [25]: 70.03%
- Activity [26]: 65.53%
- Activity [27]: 97.14%
- Activity [28]: 79.02%
- Activity [29]: 69.29%
- Activity [30]: 76.82%
- Activity [31]: 73.41%
- Activity [32]: 92.86%
- Activity [33]: 90.01%
- Activity [34]: 69.15%
- Activity [35]: 61.42%
- Activity [36]: 81.87%
- Activity [37]: 84.88%
- Activity [38]: 91.74%
- Activity [39]: 96.06%
- Activity [40]: 83.03%
- Activity [41]: 82.83%
- Activity [42]: 83.22%
- Activity [43]: 72.91%

Structure (SMILES): Cn1cc[n+](Cc2ccccc2)c1.F[P-](F)(F)(F)(F)F
- Activity [1]: 96.35%
- Activity [2]: 125.12%
- Activity [3]: 91.78%
- Activity [4]: 70.66%
- Activity [5]: 107.98%
- Activity [6]: 109.04%
- Activity [7]: 117.55%
- Activity [9]: 83.18%
- Activity [10]: 70.16%
- Activity [11]: 118.68%
- Activity [12]: 108.05%
- Activity [13]: 83.75%
- Activity [14]: 131.72%
- Activity [15]: 107.15%
- Activity [16]: 98.08%
- Activity [17]: 118.22%
- Activity [18]: 101.43%
- Activity [19]: 133.23%
- Activity [20]: 106.42%
- Activity [21]: 103.39%
- Activity [22]: 95.43%
- Activity [23]: 90.49%
- Activity [24]: 99.72%
- Activity [25]: 100.88%
- Activity [26]: 113.82%
- Activity [27]: 90.03%
- Activity [28]: 27.45%
- Activity [29]: 109.97%
- Activity [30]: 104.4%
- Activity [31]: 118.52%
- Activity [32]: 106.8%
- Activity [33]: 101.92%
- Activity [34]: 102.21%
- Activity [35]: 96.77%
- Activity [36]: 114.25%
- Activity [37]: 113.04%
- Activity [38]: 44.77%
- Activity [39]: 101.34%
- Activity [40]: 108.02%
- Activity [41]: 100.88%
- Activity [42]: 102.92%
- Activity [43]: 99.73%
